# Reference: publication PMC10352325, “Nitro-benzylideneoxymorphone, a bifunctional mu and delta opioid receptor ligand with high mu opioid receptor efficacy” (Frontiers in Pharmacology, 2023)
# Where “and” joins values, the source holds several entries; their conditions need not be identical. Identical values can stand only once.
# Legend:
# DOPr [1] = target: T1, DOPr (Homo sapiens, UniProt P41143); assay: biochemical; assay type: binding; settings: for DOPr ΔG: Gibb's free energy converted from experimental Ki
# T1 construct: host or cells: CHO
# Protocol: (§1) Cell lines, cell culture, and drug preparation. The hDOPr-CHO cell line was a generous gift from Dr. Larry Toll at the Torrey Pines Institute. The hMOPr- and hKOPr-CHO cell lines were generous gifts from John M. Streicher at the University of Arizona. All cells were cultured in 50:50 DMEM/F12 media with 10% heat-inactivated FBS and 1X penicillin/streptomycin supplement (all Gibco brand) in a 37°C humidified incubator with 5% CO2 atmosphere. Propagation cultures were further maintained with 500 μg/mL G418. Cultures were propagated for no more than 30 passages before discarding. […] Cell pellets were resuspended in 50 mM Tris HCl pH 7.4 and homogenized with a tissue grinder for 15–30 s on ice. Crude membranes were spun down at 15,000 g for 30 min. This process was repeated, and membrane preparations were stored at −80°C prior to use.
# (§2) Briefly, these reactions were miniaturized to a 400 μL volume in 96 well plates and incubated at RT for 1 h at DOPr-, KOPr- and MOPr-CHO membrane preparations. The reactions were terminated by rapid filtration through 96-well format GF/B filter plates (PerkinElmer) and washed with cold 25 mM Tris HCl pH 7.4 buffer, dried, and added ECOLUME^TM scintillation cocktail from MP Biomedicals (Santa Cruz, CA, United States). The plates were read in a MicroBeta2 96-well format 6 detector scintillation counter (PerkinElmer). KI values were calculated using the IC50 of each competitor ligand and the previously established KD of ^3H-diprenorphine in each cell line using a competition binding model (GraphPad Prism 7.0).
# KOPr [2] = target: T2, KOPr (Homo sapiens, UniProt P41145); assay: biochemical; assay type: binding; settings: for Ki: [3H]-diprenorphine, CHO membranes, n = 3, mean ± SEM; for Selectivity KOPr/MOPr (Ki): ratio of binding Ki
# T2 construct: host or cells: CHO
# Protocol: as §1, §2
# MOPr [3] = target: T3, MOPr (Homo sapiens, UniProt P35372); assay: biochemical; assay type: binding; settings: for MOPr ΔG: Gibb's free energy converted from experimental Ki; for Ki: [3H]-diprenorphine, CHO membranes, n = 3, mean ± SEM
# T3 construct: host or cells: CHO
# Protocol: as §1, §2
# MOPr [4] = target: T3, MOPr; assay: [35S]GTPγS coupling, MOPr-CHO membranes; assay type: biochemical; settings: for Emax: read-out: MOPr Emax ±SEM
# DOPr [5] = target: T1, DOPr; assay: biochemical; settings: for Selectivity DOPr/MOPr (EC50): ratio of [35S]GTPγS EC50; for Emax: read-out: DOPr Emax ±SEM
# KOPr [6] = target: T2, KOPr; assay: [35S]GTPγS coupling, KOPr-CHO membranes; assay type: biochemical; settings: Emax% relative to U69,593, read-out: KOPr Emax ±SEM
# DOPr [7] = target: T1, DOPr; assay: βarrestin2 recruitment (DiscoveRx PathHunter); assay type: cell-based
# From the text: We further evaluated 12 in βarrestin2 recruitment assays (DiscoveRx) to evaluate DOPr agonist vs. antagonist efficacy in a higher efficacy requiring assay (Supplementary Figure S1). […] None of the compounds in this series stimulated KOPr-mediated G-protein recruitment. Retaining selectivity over KOPr is vital because KOPr agonists cause dysphoria and hallucinations ([Bruchas et al., 2007]; [Cunningham et al., 2011]).
# βarrestin2 recruitment. βarrestin2 recruitment in CHO cells expressing […] was measured using the DiscoverRx PathHunter® assay kit (DiscoveRx, Fremont, CA) according to the manufacturer’s protocol. Assays were performed on at least three separate occasions in triplicate. Luminescence was read using a Synergy 2 plate reader (BioTek, Winooski, VT).
# C57BL/6 mice [8] = assay: Acute antinociception, 50°C warm water tail withdrawal (WWTW); assay type: in vivo, mouse; settings: i.p.; for tail withdrawal latency, dose-response: 30 min before 50°C WWTW, C57BL/6 WT mice
# Protocol: The 50°C warm water tail withdrawal (WWTW) antinociception assay is a standard preclinical pain assay, in which clinical analgesics increase the latency of tail removal from the warm water (Figure 2A).
# To compare the total antinociceptive activity over time, we determined the area under the curve (AUC) of each ligand’s time-course.
# Acute antinociception: 50°C warm-water tail withdrawal test in C57BL/6 mice. […] A maximum cutoff time of 20 s was implemented to prevent tissue damage. […] Drug-stimulated antinociception was expressed as a percentage of maximum possible effect (% MPE), where % MPE = (drug latency—baseline latency)/(cutoff latency—baseline latency) × 100. The acute antinociception results were analyzed with a one-way ANOVA followed by a post hoc Dunnett test comparing the drug(s) to vehicle.
# C57BL/6 mice [9] = assay: Chronic administration and antinociceptive tolerance, 50°C WWTW; assay type: in vivo, mouse; settings: for day of first statistically significant antinociceptive tolerance: 10 mg/kg morphine, 32 mg/kg 12, i.p. 3x daily, WT mice
# Protocol: As expected, the OPr antagonist and MOPr KO experiments indicate that antinociception and likely tolerance are MOPr-mediated effects.
# Chronic administration and antinociceptive tolerance. To investigate antinociceptive tolerance, either C57BL/6 WT or MOR KO mice were administered (i.p.) drug 2-3 times a day as indicated (Figure 3). […]. Mice administered with 12 were injected with 0.5 mL 0.9% saline (s.c.) twice daily. Mice were injected again at 7 p.m. on day 1, but neither weighed nor tested for antinociception. […]. A two-way analysis of variance (ANOVA) was conducted for all tolerance assays. The significance threshold was p < 0.05, and a Tukey post hoc test followed all significant ANOVAs.
# C57BL/6 mice [10] = assay: Toxicology on chronic administration (body weight, health); assay type: in vivo, mouse; settings: for weight-loss on chronic administration: 32 mg/kg, C57BL/6 WT mice, tolerance experiment; for health on repeated administration (need for euthanasia): preliminary experiments, without saline supplement
# rats = test system: rats; set-up: method as in Mada et al., 2020; settings: ref Mada et al., 2020; cited from earlier work
# T1 sequence (P41143 whole entry): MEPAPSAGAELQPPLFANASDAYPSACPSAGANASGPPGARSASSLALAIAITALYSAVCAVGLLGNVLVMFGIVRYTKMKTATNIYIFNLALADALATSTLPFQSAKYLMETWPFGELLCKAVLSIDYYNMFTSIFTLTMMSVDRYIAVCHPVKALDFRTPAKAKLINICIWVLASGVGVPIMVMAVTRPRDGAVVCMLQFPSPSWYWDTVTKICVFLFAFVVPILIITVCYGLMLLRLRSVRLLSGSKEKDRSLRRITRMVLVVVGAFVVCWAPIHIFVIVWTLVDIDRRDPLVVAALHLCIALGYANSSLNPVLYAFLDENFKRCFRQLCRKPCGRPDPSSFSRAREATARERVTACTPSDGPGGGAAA
# T2 sequence (P41145 whole entry): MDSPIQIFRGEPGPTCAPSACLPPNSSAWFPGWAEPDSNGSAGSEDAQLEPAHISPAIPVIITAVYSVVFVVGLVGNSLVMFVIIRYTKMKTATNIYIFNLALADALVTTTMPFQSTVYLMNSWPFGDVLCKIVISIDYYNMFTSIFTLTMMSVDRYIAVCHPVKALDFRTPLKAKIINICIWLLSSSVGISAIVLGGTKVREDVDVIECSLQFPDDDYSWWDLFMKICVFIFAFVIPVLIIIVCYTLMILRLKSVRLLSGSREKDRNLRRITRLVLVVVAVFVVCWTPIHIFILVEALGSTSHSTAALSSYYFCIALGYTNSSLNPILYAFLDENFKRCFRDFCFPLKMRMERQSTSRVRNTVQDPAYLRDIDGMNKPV
# T3 sequence (P35372 whole entry): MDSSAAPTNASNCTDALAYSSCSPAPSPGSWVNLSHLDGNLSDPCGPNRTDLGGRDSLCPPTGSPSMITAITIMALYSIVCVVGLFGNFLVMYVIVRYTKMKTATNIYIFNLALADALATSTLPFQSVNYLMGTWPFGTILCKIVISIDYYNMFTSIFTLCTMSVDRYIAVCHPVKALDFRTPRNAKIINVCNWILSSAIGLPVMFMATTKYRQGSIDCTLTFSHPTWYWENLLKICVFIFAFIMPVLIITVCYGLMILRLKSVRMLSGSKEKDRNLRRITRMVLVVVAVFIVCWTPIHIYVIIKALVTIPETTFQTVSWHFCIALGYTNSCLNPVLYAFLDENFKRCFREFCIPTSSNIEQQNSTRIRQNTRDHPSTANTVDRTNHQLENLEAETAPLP
smiles,measurement,setting,value
"CN1CC[C@]23c4c5ccc(O)c4O[C@H]2C(=O)/C(=C/c2ccc([N+](=O)[O-])cc2)C[C@@]3(O)[C@H]1C5 [Compound 12, Nitro-benzylideneoxymorphone]",Ki,DOPr [1],10 ± 3 nM
same,DOPr ΔG,DOPr [1],-10.98 ± 0.16 kcal/mol
same,Ki,KOPr [2],180 ± 60 nM
same,Selectivity KOPr/MOPr (Ki),KOPr [2],197
same,MOPr ΔG,MOPr [3],-12.42 ± 0.17 kcal/mol
same,Ki,MOPr [3],0.9 ± 0.3 nM
same,EC50,MOPr [4],2.2 ± 0.5 nM
same,MOPr potency relative to that reported for oxymorphone,"MOPr [4]; higher potency than oxymorphone (Olson et al., 2019)",approximately 10 fold
same,Emax,MOPr [4],87 ± 7%
same,EC50,DOPr [5],20 ± 5 nM
same,Selectivity DOPr/MOPr (EC50),DOPr [5],9.1
same,Emax,DOPr [5],28 ± 4%
same,Emax,KOPr [6],< 15%
same,Kb,DOPr [7],32 nM
same,"DOPr-mediated βarrestin2 recruitment, compound alone","DOPr [7]; agonist mode, any concentration",did not stimulate
same,area under the curve (AUC) of antinociceptive time-course,"C57BL/6 mice [8]; 32 mg/kg 12 or 10 mg/kg morphine, tested every 30 min",9247 s*min
same,"tail withdrawal latency, dose-response",C57BL/6 mice [8],dose-dependent increase in tail withdrawal latency
same,antinociceptive potency relative to morphine,"C57BL/6 mice [8]; less potent than morphine, WWTW",approximately 3 fold
same,day of first statistically significant antinociceptive tolerance,C57BL/6 mice [9],2 days
same,antinociception after naloxone pretreatment,"C57BL/6 mice [9]; 32 mg/kg 12, 10 mg/kg naloxone pretreatment, C57BL/6 WT",blocked antinociception
same,antinociception in MOPr KO mice,"C57BL/6 mice [9]; 32 mg/kg i.p., C57BL/6 MOPr KO",did not show antinociception
same,weight-loss on chronic administration,C57BL/6 mice [10],equal or greater weight-loss than those treated with morphine
same,health on repeated administration (need for euthanasia),C57BL/6 mice [10],became sick and had to be euthanized
COc1ccc(/C=C2\C[C@@]3(O)[C@H]4Cc5ccc(O)c6c5[C@@]3(CCN4C)[C@@H](O6)C2=O)cc1 [Compound 10],Ki,DOPr [1],37 ± 9 nM
same,DOPr ΔG,DOPr [1],-10.20 ± 0.13 kcal/mol
same,Ki,KOPr [2],> 1000 nM
same,Selectivity KOPr/MOPr (Ki),KOPr [2],>90
same,MOPr ΔG,MOPr [3],-10.92 ± 0.12 kcal/mol
same,Ki,MOPr [3],11 ± 2.4 nM
same,EC50,MOPr [4],172 ± 55 nM
same,Emax,MOPr [4],80 ± 5%
same,EC50,DOPr [5],102 ± 8 nM
same,Selectivity DOPr/MOPr (EC50),DOPr [5],0.59
same,Emax,DOPr [5],30 ± 9%
CN1CC[C@]23c4c5ccc(O)c4O[C@H]2C(=O)/C(=C/c2ccc(Cl)cc2)C[C@@]3(O)[C@H]1C5 [Compound 8],Ki,DOPr [1],47 ± 16 nM
same,DOPr ΔG,DOPr [1],-10.06 ± 0.17 kcal/mol
same,Ki,KOPr [2],> 1000 nM
same,Selectivity KOPr/MOPr (Ki),KOPr [2],>42
same,MOPr ΔG,MOPr [3],-10.46 ± 0.03 kcal/mol
same,Ki,MOPr [3],23.8 ± 1.2 nM
same,EC50,MOPr [4],> 1000 nM
same,EC50,DOPr [5],145 ± 14 nM
same,Selectivity DOPr/MOPr (EC50),DOPr [5],<0.15
same,Emax,DOPr [5],9 ± 3%
CN1CC[C@]23c4c5ccc(O)c4O[C@H]2C(=O)/C(=C/c2cccc4ccccc24)C[C@@]3(O)[C@H]1C5 [Compound 13],Ki,DOPr [1],56 ± 20 nM
same,DOPr ΔG,DOPr [1],-9.95 ± 0.18 kcal/mol
same,Ki,KOPr [2],> 1000 nM
same,Selectivity KOPr/MOPr (Ki),KOPr [2],>13
same,MOPr ΔG,MOPr [3],-9.78 ± 0.17 kcal/mol
same,Ki,MOPr [3],75 nM and 74.8 nM
same,EC50,MOPr [4],> 1000 nM
same,EC50,DOPr [5],102 ± 37 nM
same,Emax,DOPr [5],36 ± 10%
CN1CC[C@]23c4c5ccc(O)c4O[C@H]2C(=O)/C(=C/c2ccc4ccccc4c2)C[C@@]3(O)[C@H]1C5 [Compound 14],Ki,DOPr [1],36 ± 4 nM
same,DOPr ΔG,DOPr [1],-10.22 ± 0.06 kcal/mol
same,Ki,KOPr [2],390 ± 140 nM
same,Selectivity KOPr/MOPr (Ki),KOPr [2],299
same,MOPr ΔG,MOPr [3],-12.20 ± 0.29 kcal/mol
same,Ki,MOPr [3],1.3 ± 0.8 nM
same,EC50,MOPr [4],12 ± 5 nM
same,Emax,MOPr [4],78 ± 11%
same,Emax,DOPr [5],< 15%
same,Emax,KOPr [6],< 15%
CN1CC[C@]23c4c5ccc(O)c4O[C@H]2C(=O)/C(=C/c2ccc(F)cc2)C[C@@]3(O)[C@H]1C5 [Compound 7],Ki,DOPr [1],55 ± 8 nM
same,DOPr ΔG,DOPr [1],-9.97 ± 0.08 kcal/mol
same,Ki,KOPr [2],> 1000 nM
same,Selectivity KOPr/MOPr (Ki),KOPr [2],>50
same,MOPr ΔG,MOPr [3],-10.57 ± 0.28 kcal/mol
same,Ki,MOPr [3],19.9 ± 11.7 nM
same,EC50,MOPr [4],95 ± 25 nM
same,Emax,MOPr [4],69 ± 16%
same,Emax,DOPr [5],< 15%
"CN1CC[C@]23c4c5ccc(O)c4O[C@H]2[C@@H](O)C=C[C@H]3[C@H]1C5 [morphine, reference compound]",day of first statistically significant antinociceptive tolerance,C57BL/6 mice [9],3 days
same,health on repeated administration (need for euthanasia),C57BL/6 mice [10],did not require euthanasia
CN1CC[C@]23c4c5ccc(O)c4O[C@H]2C(=O)/C(=C/c2ccc(O)cc2)C[C@@]3(O)[C@H]1C5 [Compound 11],Ki,DOPr [1],37 ± 7 nM
same,DOPr ΔG,DOPr [1],-10.20 ± 0.10 kcal/mol
same,Ki,KOPr [2],> 1000 nM
same,Selectivity KOPr/MOPr (Ki),KOPr [2],>44
same,MOPr ΔG,MOPr [3],-10.49 ± 0.14 kcal/mol
same,Ki,MOPr [3],22.7 ± 6 nM
same,EC50,MOPr [4],275 ± 100 nM
same,Emax,MOPr [4],85 ± 6%
same,EC50,DOPr [5],97 ± 40 nM
same,Selectivity DOPr/MOPr (EC50),DOPr [5],0.35
same,Emax,DOPr [5],21 ± 6%
"CN1CC[C@]23c4c5ccc(O)c4O[C@H]2C(=O)/C(=C/c2ccccc2)C[C@@]3(O)[C@H]1C5 [Compound 5, 7-E-benzylideneoxymorphone]",EC50,MOPr [4],63 ± 25 nM
same,Emax,MOPr [4],53 ± 9%
same,EC50,DOPr [5],26 ± 4 nM
same,Emax,DOPr [5],22 ± 4%
same,"tail withdrawal latency, dose-response",C57BL/6 mice [8],negligible antinociception
same,antinociception in the tolerance paradigm,"C57BL/6 mice [9]; 32 mg/kg, C57BL/6 WT mice",neither weight-loss nor antinociception
same,weight-loss on chronic administration,C57BL/6 mice [10],neither weight-loss nor antinociception
same,antinociception in the warm water tail withdrawal test,rats,< 20 % MPE
CN1CC[C@]23c4c5ccc(O)c4O[C@H]2C(=O)/C(=C/c2ccc(Br)cc2)C[C@@]3(O)[C@H]1C5 [Compound 9],Ki,DOPr [1],121 ± 45 nM
same,DOPr ΔG,DOPr [1],-9.50 ± 0.19 kcal/mol
same,Ki,KOPr [2],> 1000 nM
same,Selectivity KOPr/MOPr (Ki),KOPr [2],>25
same,MOPr ΔG,MOPr [3],-10.16 ± 0.14 kcal/mol
same,Ki,MOPr [3],39.9 ± 10.5 nM
same,EC50,MOPr [4],> 1000 nM
same,Emax,DOPr [5],< 15%
